Literature values as cited in US12433928B2, “Therapeutic treatment for the coronavirus disease COVID-19” (priority 2020, dated 2025).

Tested on: herpes simplex virus type 1 (HSV-1)
Settings: certain viruses, e.g. HSV-1 in vitro

In the case of Cc1ccc(C(C)C)c(O)c1 [thymol], the “antiviral activity in medical studies” value is given as “antiviral activity and effectiveness”.
